“And” between values parts separate entries of the source, which are not always exact repeats. Identical values can stand only once.
Target: T1, human TAS2R1 (Homo sapiens, UniProt Q9NYW7)
T1 construct: expressed in transfected cells; host or cells: HEK293T-Gα16gust44
T1 sequence (Q9NYW7 1-299): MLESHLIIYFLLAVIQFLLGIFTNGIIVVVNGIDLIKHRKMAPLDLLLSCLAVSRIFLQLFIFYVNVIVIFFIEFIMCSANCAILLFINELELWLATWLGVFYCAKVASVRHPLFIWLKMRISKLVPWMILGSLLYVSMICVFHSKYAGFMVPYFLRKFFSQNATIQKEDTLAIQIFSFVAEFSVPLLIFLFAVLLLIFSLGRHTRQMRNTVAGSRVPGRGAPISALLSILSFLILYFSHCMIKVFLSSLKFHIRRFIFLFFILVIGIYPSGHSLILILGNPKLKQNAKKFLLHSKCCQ
Test: Calcium imaging assay (FLIPR), HEK293T-Gα16gust44 cells transfected with human TAS2R1
Assay type: cell-based
Method in brief: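 Fluo-4 calcium responses; ΔF/F corrected for mock transfection and buffer control; triplicate independent dose-response runs; p < 0.01 threshold.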

For `C[C@H](CCC(=O)O)[C@H]1CC[C@H]2[C@@H]3[C@H](O)C[C@@H]4C[C@H](O)CC[C@]4(C)[C@H]3C[C@H](O)[C@]12C` [Cholic Acid, cholic acid], the “Efficacy = maximal amplitude (ΔF/F)” value (TAS2R1, bile acids, mean) was 0.1303, the “Efficacy (maximal amplitude ΔF/F), individual data points” value (TAS2R1, bile acids, single replicates, listed as CA) was 0.1237 and 0.1261 and 0.1411 and the RLU (Time 0 s) was 0 RLU. It also gave an RLU (Time 2.015 s) of -18.7915 RLU, an RLU (Time 4.015 s) of -20.7803 RLU and an RLU (Time 6.015 s) of -30.3104 RLU. The RLU (Time 8.015 s) was -41.5185 RLU, the RLU (Time 12.015 s) was -39.0663 RLU and the RLU (Time 14.015 s) was -19.7859 RLU. For the same compound, the RLU (Time 16.015 s) was -20.0825 RLU, the RLU (Time 18.015 s) was -33.1938 RLU and the RLU (Time 18.796 s) was -13.8993 RLU. It also gave an RLU (Time 20.796 s) of -32.113 RLU, an RLU (Time 22.796 s) of 0.5227 RLU and an RLU (Time 24.796 s) of 72.3168 RLU. The RLU (Time 26.796 s) was 179.01 RLU, the RLU (Time 28.796 s) was 273.224 RLU and the RLU (Time 30.796 s) was 414.499 RLU. The RLU (Time 32.796 s) was 487.46 RLU, the RLU (Time 34.796 s) was 561.258 RLU and the RLU (Time 36.796 s) was 600.729 RLU. For the same compound, the RLU (Time 38.796 s) was 652.414 RLU, the RLU (Time 40.796 s) was 646.063 RLU and the RLU (Time 42.796 s) was 688.029 RLU. For the same compound, the RLU (Time 44.796 s) was 718.237 RLU, the RLU (Time 46.796 s) was 709.989 RLU and the RLU (Time 48.796 s) was 747.058 RLU. It also gave an RLU (Time 50.796 s) of 725.497 RLU, an RLU (Time 52.796 s) of 721.254 RLU and an RLU (Time 54.796 s) of 750.511 RLU. For the same compound, the RLU (Time 56.796 s) was 763.129 RLU, the RLU (Time 58.796 s) was 754.05 RLU and the RLU (Time 60.796 s) was 736.769 RLU. For the same compound, the RLU (Time 62.796 s) was 752.117 RLU, the RLU (Time 64.796 s) was 729.251 RLU and the RLU (Time 66.796 s) was 754.307 RLU. For the same compound, the RLU (Time 68.796 s) was 748.849 RLU, the RLU (Time 70.796 s) was 729.014 RLU and the RLU (Time 72.796 s) was 724.252 RLU. It also gave an RLU (Time 74.796 s) of 721.996 RLU, an RLU (Time 76.796 s) of 719.984 RLU and an RLU (Time 78.796 s) of 701.138 RLU. It also gave an RLU (Time 80.796 s) of 695.956 RLU, an RLU (Time 82.796 s) of 687.252 RLU and an RLU (Time 84.796 s) of 702.818 RLU. It also gave an RLU (Time 86.796 s) of 660.013 RLU, an RLU (Time 88.796 s) of 675.614 RLU and an RLU (Time 90.796 s) of 671.255 RLU. The RLU (Time 92.796 s) was 645.369 RLU, the RLU (Time 94.796 s) was 658.13 RLU and the RLU (Time 96.796 s) was 614.664 RLU. It also gave an RLU (Time 98.796 s) of 601.791 RLU, an RLU (Time 100.796 s) of 605.799 RLU and an RLU (Time 102.796 s) of 574.755 RLU. It also gave an RLU (Time 104.796 s) of 579.697 RLU, an RLU (Time 106.796 s) of 554.874 RLU and an RLU (Time 108.796 s) of 536.028 RLU. The RLU (Time 110.796 s) was 503.66 RLU, the RLU (Time 112.796 s) was 530.288 RLU and the RLU (Time 114.796 s) was 510.693 RLU. The RLU (Time 116.796 s) was 515.676 RLU, the RLU (Time 118.796 s) was 477.82 RLU and the RLU (Time 120.796 s) was 483.731 RLU. For the same compound, the RLU (Time 122.796 s) was 479.051 RLU, the RLU (Time 124.796 s) was 471.711 RLU and the RLU (Time 126.796 s) was 440.735 RLU. For the same compound, the RLU (Time 128.796 s) was 427.776 RLU, the RLU (Time 130.796 s) was 428.214 RLU and the RLU (Time 132.796 s) was 399.927 RLU. It also gave an RLU (Time 134.796 s) of 369.335 RLU, an RLU (Time 136.796 s) of 379.68 RLU and an RLU (Time 137.562 s) of 368.206 RLU. It also gave an RLU (Time 143.562 s) of 326.335 RLU, an RLU (Time 149.562 s) of 297.638 RLU and an RLU (Time 155.562 s) of 268.743 RLU. It also gave an RLU (Time 161.562 s) of 228.213 RLU, an RLU (Time 167.562 s) of 217.461 RLU and an RLU (Time 173.562 s) of 182.798 RLU. It also gave an RLU (Time 179.562 s) of 176.247 RLU, an RLU (Time 185.562 s) of 110.643 RLU and an RLU (Time 191.562 s) of 119.586 RLU. It also gave an RLU (Time 197.562 s) of 108.976 RLU, an RLU (Time 203.562 s) of 106.514 RLU and an RLU (Time 209.562 s) of 78.0739 RLU. The RLU (Time 215.562 s) was 68.108 RLU, the RLU (Time 221.562 s) was 58.6538 RLU and the RLU (Time 227.562 s) was 6.904 RLU. For the same compound, the RLU (Time 233.562 s) was -20.3665 RLU, the RLU (Time 239.562 s) was 5.663 RLU and the RLU (Time 245.562 s) was 6.786 RLU. It also gave an RLU (Time 293.562 s) of -10.9022 RLU, an RLU (Time 299.562 s) of -34.1549 RLU and an RLU (calcium trace, sheet TAS2R1, Time 305.562 s) of -13.9937 RLU. It also gave an RLU (calcium trace, sheet TAS2R1, Time 311.562 s) of -29.8879 RLU, an RLU (calcium trace, sheet TAS2R1, Time 317.562 s) of -12.8001 RLU and an RLU (calcium trace, sheet TAS2R1, Time 323.562 s) of -27.2317 RLU. For the same compound, the RLU (calcium trace, sheet TAS2R1, Time 329.562 s) was -32.4678 RLU, the RLU (calcium trace, sheet TAS2R1, Time 335.562 s) was -20.5128 RLU and the RLU (calcium trace, sheet TAS2R1, Time 341.562 s) was -18.5874 RLU. For the same compound, the RLU (calcium trace, sheet TAS2R1, Time 347.562 s) was -51.1709 RLU, the RLU (calcium trace, sheet TAS2R1, Time 353.562 s) was -49.428 RLU and the RLU (calcium trace, sheet TAS2R1, Time 359.562 s) was -15.7961 RLU. The “Activation threshold concentration TAS2R1” value (lowest concentration with significantly increased fluorescence vs empty vector (p < 0.01)) was 100 µM and 100.00 µM.
